Measurements as given in PMC7044277 (Nature Communications, 2020).
Where “and” joins values, the source holds several entries; their conditions need not be identical. Equal entries are not always repeated.

Key:
[1] = biological target: DRD2 (D2 long receptor) wild-type (Homo sapiens, UniProt P14416); assay: Radioligand competition binding, [3H]-N-methylspiperone, HEK293T membranes
[2] = biological target: DRD3 wild-type (Homo sapiens, UniProt P35462); assay: Radioligand competition binding, [3H]-N-methylspiperone
DRD3 wild-type, sequence (P35462 whole entry): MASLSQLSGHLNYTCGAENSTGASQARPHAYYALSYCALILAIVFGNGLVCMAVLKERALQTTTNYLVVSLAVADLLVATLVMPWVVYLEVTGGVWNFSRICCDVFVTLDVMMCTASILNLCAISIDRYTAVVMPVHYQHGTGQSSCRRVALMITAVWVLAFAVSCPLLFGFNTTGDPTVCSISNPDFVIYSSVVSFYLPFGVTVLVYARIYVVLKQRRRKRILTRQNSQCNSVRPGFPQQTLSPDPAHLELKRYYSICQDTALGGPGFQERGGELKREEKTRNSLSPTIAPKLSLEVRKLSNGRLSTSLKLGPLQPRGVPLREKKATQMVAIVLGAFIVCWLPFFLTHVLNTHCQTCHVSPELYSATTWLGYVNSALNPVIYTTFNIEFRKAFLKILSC

[3] = biological target: T1, DRD4 (D4.4 variant) wild-type (Homo sapiens, UniProt P21917); assay: as above; conditions: DRD4; [3H]-methylspiperone (0.8-1.0 nM); read-out: Ki
T1 sequence (P21917 1-419): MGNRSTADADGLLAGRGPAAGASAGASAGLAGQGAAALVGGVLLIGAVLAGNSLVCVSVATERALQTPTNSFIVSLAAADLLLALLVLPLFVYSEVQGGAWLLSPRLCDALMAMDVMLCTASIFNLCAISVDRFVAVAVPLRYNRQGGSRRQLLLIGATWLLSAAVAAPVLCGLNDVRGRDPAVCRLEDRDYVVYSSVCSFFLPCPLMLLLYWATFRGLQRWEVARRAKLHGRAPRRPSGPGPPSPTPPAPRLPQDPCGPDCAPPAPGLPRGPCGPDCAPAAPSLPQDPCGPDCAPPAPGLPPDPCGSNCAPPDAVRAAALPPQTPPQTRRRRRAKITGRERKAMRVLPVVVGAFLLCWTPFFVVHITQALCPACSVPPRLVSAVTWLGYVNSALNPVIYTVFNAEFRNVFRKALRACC

[4] = biological target: T2, DRD2 (D2 long receptor) (Homo sapiens, UniProt P14416); assay: Gαi/o-mediated cAMP inhibition (GloSensor split-luciferase cAMP reporter), HEK293T; assay type: cell-based; conditions: for Response, Fig_S11b dose-response: individual replicates;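 as to all read-outs here: compounds applied 15 min at room temperature, then luciferin plus 400 nM isoproterenol to raise cAMP through endogenous β2-adrenergic receptors, luminescence read 15 min later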
T2 sequence (P14416 whole entry): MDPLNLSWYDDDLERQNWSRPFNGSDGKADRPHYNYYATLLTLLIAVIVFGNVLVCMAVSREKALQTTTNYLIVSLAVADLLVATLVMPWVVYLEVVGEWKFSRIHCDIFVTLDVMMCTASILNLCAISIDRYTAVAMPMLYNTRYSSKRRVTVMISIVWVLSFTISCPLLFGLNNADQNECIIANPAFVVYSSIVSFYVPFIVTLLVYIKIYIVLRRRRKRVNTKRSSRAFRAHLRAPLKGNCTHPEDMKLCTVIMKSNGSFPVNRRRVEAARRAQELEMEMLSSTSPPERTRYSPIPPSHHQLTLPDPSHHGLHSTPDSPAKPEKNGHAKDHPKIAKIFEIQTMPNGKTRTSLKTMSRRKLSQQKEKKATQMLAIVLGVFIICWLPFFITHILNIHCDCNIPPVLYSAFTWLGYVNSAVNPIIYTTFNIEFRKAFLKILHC

[5] = biological target: T3, DRD4 (D4.4 variant) (Homo sapiens, UniProt P21917); assay: Gαi/o-mediated cAMP inhibition (GloSensor); assay type: cell-based; conditions: DRD4; agonist, cAMP inhibition; read-out: EC50 ± SEM
T3 sequence (P21917 1-419): T1 sequence (P21917 1-419)

[6] = biological target: T2, DRD2 (D2 long receptor); assay: β-arrestin2 recruitment (Tango), HTLA cells; assay type: cell-based; conditions: for Response, Fig_S11c dose-response: individual replicates
[7] = biological target: DRD3 (Homo sapiens, UniProt P35462); assay: β-arrestin2 recruitment (Tango); assay type: cell-based; conditions: DRD3, Tango
DRD3, sequence (P35462 whole entry): as the sequence (P35462 whole entry) above

[8] = biological target: T3, DRD4 (D4.4 variant); assay: β-arrestin2 recruitment (Tango); assay type: cell-based; conditions: DRD4; Tango; read-out: EC50 ± SEM
[9] = biological target: DRD2 F1103.28A (Homo sapiens, UniProt P14416, F110A); assay type: binding; design: expressed in transfected cells; host or cells: HEK293T (ATCC CRL-11268); conditions: DRD2 F1103.28A
DRD2 F1103.28A, sequence (P14416 whole entry F110A): as the sequence (P14416 whole entry) above, with F110A counted along it

DRD2 (D2 long receptor) wild-type, sequence (P14416 whole entry): as the sequence (P14416 whole entry) above

COc1cccc2cc(C(C)NCC3(O)CCCCC3)oc12.Cl (centres unmarked) [O3LE6]
Ki ([1]; DRD2, [3H]-methylspiperone (0.8-1.0 nM), read-out: Ki): 4.78 µM | pKi ± SEM ([1]; DRD2 wild-type): 5.32±0.22 | Ki ([2]; DRD3, [3H]-methylspiperone (0.8-1.0 nM), read-out: Ki): 1070 nM | pKi ± SEM ([2]; DRD3 wild-type): 5.97±0.13 | Ki [3]: > 10 µM | EC50 ([4]; DRD2, agonist, Gαi/o-mediated cAMP inhibition, read-out: EC50 ± SEM): 5.38 ± 1.15 nM | Emax relative to quinpirole response ([4]; DRD2, cAMP inhibition): 91.62% | Response, Fig_S11b dose-response ([4]; Log[Drug] -5): 91.2746 and 93.268 and 92.0221 and 94.9982 and 95.9757 and 91.0458 and 94.8288 and 96.7238 and 94.4943 | Response, Fig_S11b dose-response ([4]; Log[Drug] -5.52): 84.7131 and 82.1661 and 88.7829 and 90.1533 and 94.7432 and 84.076 and 96.9467 and 103.412 and 92.2649 | Response, Fig_S11b dose-response ([4]; Log[Drug] -6): 91.1916 and 89.8903 and 94.4031 and 97.8031 and 85.4785 and 88.6659 and 101.461 and 101.183 and 85.6322 | Response, Fig_S11b dose-response ([4]; Log[Drug] -6.52): 79.2314 and 90.7486 and 80.9756 and 96.6556 and 102.308 and 66.8216 and 90.3141 and 94.5501 and 81.1733 | Response, Fig_S11b dose-response ([4]; Log[Drug] -7): 93.1296 and 79.0099 and 76.7951 and 89.8559 and 81.4411 and 87.5184 and 97.0582 and 96.7796 and 87.8617 | Response, Fig_S11b dose-response ([4]; Log[Drug] -7.52): 73.6389 and 59.4361 and 66.496 and 84.9685 and 73.1539 and 73.1114 and 79.2783 and 81.1733 and 101.35 | Response, Fig_S11b dose-response ([4]; Log[Drug] -8): 62.703 and 59.1593 and 45.4826 and 64.1867 and 54.9645 and 52.4996 and 72.7571 and 85.8552 and 67.9638 | Response, Fig_S11b dose-response ([4]; Log[Drug] -8.52): 23.5556 and 18.5998 and 3.594 and 27.9779 and 38.8575 and 46.6347 and 39.4267 and 57.0952 and 34.8006 | Response, Fig_S11b dose-response ([4]; Log[Drug] -9): 24.2477 and 23.1957 and 12.4536 and 22.6655 and 22.9205 and 23.0055 and 26.2172 and 30.5646 and 12.7847 | Response, Fig_S11b dose-response ([4]; Log[Drug] -10.52): -0.1987 and -7.8123 | Response, Fig_S11b dose-response ([4]; Log[Drug] -11): 6.197 and 12.6784 and -7.6785 and 0.5663 | Response, Fig_S11b dose-response ([4]; Log[Drug] -11.52): -9.1412 and 3.4 and -7.0575 and 6.319 | Response, Fig_S11b dose-response ([4]; Log[Drug] -12): -5.1267 and 0.6872 and -14.1523 and 6.559 and 2.691 and 2.479 and -11.9066 and 21.591 and -2.8216 | EC50 [5]: > 10 µM | Emax relative to quinpirole response ([6]; DRD2, Tango): 109.80% | EC50 ([6]; DRD2, β-arrestin2 recruitment (Tango), read-out: EC50 ± SEM): 166 ± 76.4 nM | response, Fig_S11c dose-response source data ([6]; Fig_S11c, Log[Drug] -5, replicate values): 121.198 and 127.001 and 100.932 and 110.321 and 113.709 and 113.34 and 97.1155 | Response, Fig_S11c dose-response ([6]; Log[Drug] -6.52): 92.1418 and 88.9307 | Response, Fig_S11c dose-response ([6]; Log[Drug] -7): 77.394 and 77.7575 and 68.5542 and 65.6395 and 57.0787 and 60.1228 and 51.2599 and 46.3298 | Response, Fig_S11c dose-response ([6]; Log[Drug] -7.52): 38.329 and 41.6231 and 33.61 and 32.4962 and 32.299 and 34.1126 and 16.8232 and 31.0553 and 35.575 | Response, Fig_S11c dose-response ([6]; Log[Drug] -8): 11.9901 and 12.2692 and 10.2755 and 10.8849 and 10.4485 and 8.443 and 10.7171 and 9.707 and 5.469 | Response, Fig_S11c dose-response ([6]; Log[Drug] -8.52): 3.649 and 3.804 and 4.186 and 3.535 and 4.03 and 2.927 and 1.899 and 5.413 and 2.845 | Response, Fig_S11c dose-response ([6]; Log[Drug] -9): 2.6531 and 2.675 and 3.049 and 2.914 and 2.704 and 2.807 and 3.034 (2×) and 2.494 | Response, Fig_S11c dose-response ([6]; Log[Drug] -9.52): 2.467 and 2.869 and 2.678 and 2.37 and 2.33 and 2.2184 and 1.931 and 2.13 and 2.319 | Response, Fig_S11c dose-response ([6]; Log[Drug] -10): 2.843 and 2.654 and 2.976 and 2.168 and 2.347 and 2.222 and 3.804 and 1.194 and 2.499 | Response, Fig_S11c dose-response ([6]; Log[Drug] -10.52): 2.259 and 2.282 and 2.549 and 2.128 and 2.141 (2×) and 0.6309 and 3.246 and 2.4849 | Response, Fig_S11c dose-response ([6]; Log[Drug] -11): 2.232 and 3.428 and 2.336 and 2.237 and 2.197 and 2.087 and 5.0906 and 1.927 and 3.601 | Response, Fig_S11c dose-response ([6]; Log[Drug] -11.52): 2.2032 and 3.321 and 2.444 and 2.452 and 2.181 and 2.306 and 0.82 and 1.028 and 2.688 | Response, Fig_S11c dose-response ([6]; Log[Drug] -12): 2.5295 and 2.339 and 2.21 and 2.47 and 2.197 and 2.157 and 4.362 and 2.319 and 1.955 | Emax relative to quinpirole response [7]: 80.01% | EC50 ([7]; read-out: EC50 ± SEM): 5.48 ± 3.94 µM | EC50 [8]: > 10 µM | pKi ± SEM [9]: 5.49±0.16 | Ki ([9]; read-out: Ki): 3.24 µM
